Measurements: patent US20240360134A1, “PYRAZOLOPYRIMIDINES AND THEIR USES AS PDGFR INHIBITORS” (priority 2021, published 2024)
Where two headings read alike, the source gives them in different places.

Tests used:
[1] = molecular target: VEGFR2, unphosphorylated (Homo sapiens (Human), UniProt P35968); test: VEGFR ADP GLO assay; assay type: biochemical; conditions: 5 nM VEGFR2, 1.2 mM ATP, 1 mg/mL Srctide, 180 min
Outline: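 Unphosphorylated kinase (10 nM 2× solution) pre-incubated 30 min at RT with compounds (11-point, 3-fold, top 10 µM), then reacted 180 min with srctide and ATP (2×: 2 mg/mL, 2.4 mM) in HEPES pH 7.5 buffer. ADP read by luminescence. IC50 from 4-parameter fit, normalized to DMSO and 1 µM TAK-593.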

[2] = molecular target: Tb-labeled inactive PDGFRβ (Homo sapiens (Human), UniProt P09619); test: biochemical; assay type: binding
[3] = molecular target: PDGFRβ (Rattus norvegicus (Rat), UniProt Q05030); test: PDGFRβ Cellular Assay (PDGFRb P-Y751 HTRF, PDGF-BB stimulated A10 cells); assay type: cell-based
Outline: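 Rat A10 cells plated overnight were treated with compound for 3 h, stimulated with rat PDGF-BB (working stock 100 ng/mL in 10% FBS medium) for 10 min, then lysed.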

[4] = molecular target: His6-TEV-PDGFRβ (557-1016) (Homo sapiens (Human), UniProt P09619); test: PDGFRβ HTRF Assay; assay type: biochemical
Description: Instrumentation: a. Compound liquid handling: LabCyte Echo; b. Reagent liquid handling: Thermo Scientific Multidrop Combi; c. BMG PHERAStar multilabel plate reader.
Protein Reagent: His6-TEV-PDGFRβ Protein Prep prepared at Accelagen.
Assay buffer stock solution, contains 50 mM Hepes, 10 mM MgCl2, 1 mM EGTA, and 0.01% Brij-35, 0.01% ovalbumin, 2 mM DTT at pH 7.5, in molecular biology grade water. Store at room temperature.
Assay buffer. Dilute 5× Kinase buffer 5-fold with molecular biology grade water and add DTT to 2 mM and ovalbumin to 0.1 mg/mL (or 0.01%).
2× protein solution. Make a working solution of […] PDGFRβ in assay buffer. Keep on ice until use to maintain enzyme stability.
2× substrate solution. Make a working solution of 1.6 mM ATP and 1 μM TK-substrate biotin peptide in assay buffer. 3× quench/detection solution.
Step 2. PDGFRβ E+I pre-incubation: Add 2 μL 2× protein solution to columns 1-24 using the Multidrop Combi. Centrifuge at 1000 rpm for 1 min. Incubate 30 min at RT
Step 2. Enzymatic reaction: Add 2 μL substrate solution to columns 1-24 to initiate the reaction using the Multidrop Combi; cover/seal the assay plate to reduce evaporation. Centrifuge at 1000 rpm for 1 min. Incubate at room temperature for 3 hours.
Final concentrations of components in PDGFRp cascade assay:
0.5 μM TK-substrate biotin peptide
Step 3. Quench/Detection: Add 2 μl 3× quench/detection solution to columns 1-24 using the Multidrop Combi; cover/seal the plate. Centrifuge 1 min 1000 rpm. Incubate at RT for 60 min.
HTRF ratio values calculated by the instrument (Ratio is acceptor counts/donor counts*10,000) is exported from the plate reader and used in data analysis. The exported data will be used to calculate 1) compound activity and 2) assay statistics. […] Assay statistics can include Robust Z′ and Signal to Background.
% Inhibition Calculation: Percent inhibition will be calculated for sample wells based on the equation: […]
IC50 Calculation: For IC50 determination, full 11-point dose response data will be processed using the following equation: […]

[5] = A10 cells, 3 hours compound, 15 ng/mL PDGFbb for 10 minutes, read-out: PDGFR Cellular IC50
[6] = 800 μM ATP, 0.5 μM TK-substrate biotin peptide, 30 min pre-incubation, 3 hours reaction, read-out: PDGFR HTRF IC50

Sequence of VEGFR2, unphosphorylated (P35968 whole entry, looked up): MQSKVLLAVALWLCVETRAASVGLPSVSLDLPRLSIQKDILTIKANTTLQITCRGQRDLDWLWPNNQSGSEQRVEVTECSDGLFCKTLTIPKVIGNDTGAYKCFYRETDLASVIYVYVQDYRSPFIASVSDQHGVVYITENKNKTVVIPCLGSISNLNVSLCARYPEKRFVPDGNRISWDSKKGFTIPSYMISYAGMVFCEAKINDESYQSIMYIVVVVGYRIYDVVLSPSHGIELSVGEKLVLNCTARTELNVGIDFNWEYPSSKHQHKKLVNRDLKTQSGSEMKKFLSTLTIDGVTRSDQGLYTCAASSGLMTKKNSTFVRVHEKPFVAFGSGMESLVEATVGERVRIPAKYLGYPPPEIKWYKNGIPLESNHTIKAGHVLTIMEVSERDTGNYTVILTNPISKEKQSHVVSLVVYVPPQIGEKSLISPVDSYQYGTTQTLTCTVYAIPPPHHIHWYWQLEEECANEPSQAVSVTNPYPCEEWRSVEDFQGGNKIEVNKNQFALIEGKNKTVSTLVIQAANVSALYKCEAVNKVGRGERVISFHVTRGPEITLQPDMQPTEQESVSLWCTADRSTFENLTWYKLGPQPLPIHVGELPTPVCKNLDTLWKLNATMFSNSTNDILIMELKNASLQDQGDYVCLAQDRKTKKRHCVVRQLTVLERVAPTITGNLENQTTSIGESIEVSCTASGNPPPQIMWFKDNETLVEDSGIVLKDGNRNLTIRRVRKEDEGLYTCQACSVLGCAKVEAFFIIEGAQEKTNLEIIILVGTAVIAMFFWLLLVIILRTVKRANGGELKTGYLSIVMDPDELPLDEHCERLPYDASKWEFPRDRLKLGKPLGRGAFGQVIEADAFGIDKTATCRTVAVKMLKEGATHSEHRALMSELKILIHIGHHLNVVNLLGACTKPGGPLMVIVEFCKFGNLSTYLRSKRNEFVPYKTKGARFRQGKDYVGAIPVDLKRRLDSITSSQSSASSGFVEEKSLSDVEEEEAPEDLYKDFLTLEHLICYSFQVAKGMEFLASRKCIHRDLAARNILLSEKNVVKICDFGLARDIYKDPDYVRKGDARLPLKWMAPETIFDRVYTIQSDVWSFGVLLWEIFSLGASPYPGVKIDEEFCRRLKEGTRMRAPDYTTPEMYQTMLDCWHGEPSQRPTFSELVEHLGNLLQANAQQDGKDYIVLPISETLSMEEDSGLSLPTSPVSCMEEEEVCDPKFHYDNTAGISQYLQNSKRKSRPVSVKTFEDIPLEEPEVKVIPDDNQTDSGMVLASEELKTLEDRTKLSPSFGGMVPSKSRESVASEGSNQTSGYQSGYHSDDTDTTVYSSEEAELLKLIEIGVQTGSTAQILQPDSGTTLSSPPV
Sequence of His6-TEV-PDGFRβ (557-1016) (P09619 whole entry, looked up): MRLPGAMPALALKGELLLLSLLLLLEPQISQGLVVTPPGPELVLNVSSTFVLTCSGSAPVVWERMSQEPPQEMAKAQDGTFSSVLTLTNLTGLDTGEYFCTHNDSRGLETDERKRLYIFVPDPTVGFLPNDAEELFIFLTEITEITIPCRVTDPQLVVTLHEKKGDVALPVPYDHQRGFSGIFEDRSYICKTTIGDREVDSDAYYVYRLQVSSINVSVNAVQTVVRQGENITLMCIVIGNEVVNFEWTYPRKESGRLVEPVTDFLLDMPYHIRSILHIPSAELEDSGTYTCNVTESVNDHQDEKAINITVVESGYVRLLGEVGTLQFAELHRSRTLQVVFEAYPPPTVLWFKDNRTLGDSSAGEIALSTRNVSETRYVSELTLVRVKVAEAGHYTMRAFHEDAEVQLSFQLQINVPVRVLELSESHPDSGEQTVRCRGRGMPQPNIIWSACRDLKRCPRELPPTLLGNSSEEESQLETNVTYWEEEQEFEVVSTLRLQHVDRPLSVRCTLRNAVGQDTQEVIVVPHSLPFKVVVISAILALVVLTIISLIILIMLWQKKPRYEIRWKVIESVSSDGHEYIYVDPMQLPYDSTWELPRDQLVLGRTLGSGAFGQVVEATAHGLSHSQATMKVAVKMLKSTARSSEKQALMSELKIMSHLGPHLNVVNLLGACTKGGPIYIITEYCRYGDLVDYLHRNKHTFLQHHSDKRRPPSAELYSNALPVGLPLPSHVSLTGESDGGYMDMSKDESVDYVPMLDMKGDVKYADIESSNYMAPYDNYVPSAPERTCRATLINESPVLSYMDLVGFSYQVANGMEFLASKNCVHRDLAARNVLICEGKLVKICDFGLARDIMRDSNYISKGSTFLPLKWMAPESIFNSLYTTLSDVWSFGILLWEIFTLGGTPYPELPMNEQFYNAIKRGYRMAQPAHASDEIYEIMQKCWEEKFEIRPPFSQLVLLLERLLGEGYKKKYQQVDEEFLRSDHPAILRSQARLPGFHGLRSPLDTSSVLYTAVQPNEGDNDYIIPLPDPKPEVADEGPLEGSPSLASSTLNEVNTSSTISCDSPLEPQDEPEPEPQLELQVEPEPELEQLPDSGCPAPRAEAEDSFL
Sequence of Tb-labeled inactive PDGFRβ (P09619 whole entry, looked up): as above
Sequence of PDGFRβ (Q05030 whole entry, looked up): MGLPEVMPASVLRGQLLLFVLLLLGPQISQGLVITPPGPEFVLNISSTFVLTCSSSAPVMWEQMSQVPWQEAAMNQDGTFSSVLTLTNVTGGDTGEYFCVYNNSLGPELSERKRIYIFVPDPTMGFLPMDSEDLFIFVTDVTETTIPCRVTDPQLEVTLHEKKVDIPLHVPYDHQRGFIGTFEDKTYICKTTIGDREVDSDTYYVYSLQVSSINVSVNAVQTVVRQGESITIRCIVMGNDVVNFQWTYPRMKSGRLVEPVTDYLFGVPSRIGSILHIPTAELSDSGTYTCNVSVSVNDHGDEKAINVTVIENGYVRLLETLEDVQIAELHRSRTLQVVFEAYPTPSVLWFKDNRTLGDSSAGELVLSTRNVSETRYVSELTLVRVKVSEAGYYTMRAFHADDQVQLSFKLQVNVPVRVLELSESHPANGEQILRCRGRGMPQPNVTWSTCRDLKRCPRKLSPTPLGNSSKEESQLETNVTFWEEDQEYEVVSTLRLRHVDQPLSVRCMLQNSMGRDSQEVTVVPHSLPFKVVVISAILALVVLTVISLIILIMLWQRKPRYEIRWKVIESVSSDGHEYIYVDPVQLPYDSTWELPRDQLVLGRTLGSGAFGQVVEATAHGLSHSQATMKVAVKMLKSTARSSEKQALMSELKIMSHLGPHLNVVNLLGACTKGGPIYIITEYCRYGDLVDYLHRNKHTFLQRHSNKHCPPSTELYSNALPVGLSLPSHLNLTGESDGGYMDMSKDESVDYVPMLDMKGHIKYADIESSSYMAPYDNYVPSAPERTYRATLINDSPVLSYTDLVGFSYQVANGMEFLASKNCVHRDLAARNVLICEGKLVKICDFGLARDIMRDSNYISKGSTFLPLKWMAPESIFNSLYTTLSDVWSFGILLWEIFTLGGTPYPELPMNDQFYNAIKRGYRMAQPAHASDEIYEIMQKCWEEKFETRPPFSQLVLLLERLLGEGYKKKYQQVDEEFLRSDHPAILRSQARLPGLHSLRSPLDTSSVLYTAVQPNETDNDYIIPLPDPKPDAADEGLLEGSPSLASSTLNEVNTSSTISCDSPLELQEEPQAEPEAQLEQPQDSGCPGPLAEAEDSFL

Row | SMILES | IC50 [1] [µM] | IC50 ([2]; read-out: PDGFR Lantha IC50) [µM] | IC50 [3, 5] [µM] | IC50 [4, 6] [µM] | IC50 [2] [µM] | IC50 [3] [µM] | IC50 [4] [µM]
1 | Cc1ncc(C(=O)NCCN2C[C@H](C)O[C@@H](C)C2)cc1Nc1nn(C)c2nc(Nc3ccncc3)ncc12 [Example 115, N-(2-((2S,6S)-2,6-dimethylmorpholino)ethyl)-6-methyl-5-((1-methyl-6-(pyridin-4-ylamino)-1H-pyrazolo[3,4-d]pyrimidin-3-yl)amino)nicotinamide] | > 7.5 | 0.0039 | 0.0206 | 0.00048 |  |  | 
2 | Cc1ncc(C(=O)NCCC2CCCCC2)cc1Nc1nn(C)c2nc(Nc3ccc(N4CCNCC4)nc3)ncc12 [Example 109, N-(2-cyclohexylethyl)-6-methyl-5-((1-methyl-6-((6-(piperazin-1-yl)pyridin-3-yl)amino)-1H-pyrazolo[3,4-d]pyrimidin-3-yl)amino)nicotinamide] | 0.167 | 0.004 | 0.127 | 0.00078 |  |  | 
3 | Cc1ncc(C(=O)NCCN2CCCCC23CC3)cc1Nc1nn(C)c2nc(Nc3cncnc3)ncc12 [Example 56, N-(2-(4-azaspiro[2.5]octan-4-yl)ethyl)-6-methyl-5-((1-methyl-6-(pyrimidin-5-ylamino)-1H-pyrazolo[3,4-d]pyrimidin-3-yl)amino)nicotinamide] | > 7.5 | 0.003 | 0.0097 | 0.00054 |  |  | 
4 | Cc1ncc(C(=O)NCCN2CCCC[C@H]2C)cc1Nc1nn(C)c2nc(Nc3cnn(C)c3)ncc12 [Example 82, (R)-6-methyl-5-((1-methyl-6-((1-methyl-1H-pyrazol-4-yl)amino)-1H-pyrazolo[3,4-d]pyrimidin-3-yl)amino)-N-(2-(2-methylpiperidin-1-yl)ethyl)nicotinamide] | > 7.5 |  |  |  | 0.0017 | 0.0202 | 0.00018
5 | Cc1ncc(C(=O)NCCN2CCC(C)(C)C2)cc1Nc1nn(C)c2nc(Nc3cnn(C)c3)ncc12 [Example 86, N-(2-(3,3-dimethylpyrrolidin-1-yl)ethyl)-6-methyl-5-((1-methyl-6-((1-methyl-1H-pyrazol-4-yl)amino)-1H-pyrazolo[3,4-d]pyrimidin-3-yl)amino)nicotinamide] | > 7.5 | 0.0022 | 0.0182 | 0.00033 |  |  | 
6 | Cc1cc(Nc2ncc3c(Nc4cc(C(=O)NCCN5CCC[C@@H]5C)cnc4C)nn(C)c3n2)n(C)n1 [Example 158, (S)-5-((6-((1,3-dimethyl-1H-pyrazol-5-yl)amino)-1-methyl-1H-pyrazolo[3,4-d]pyrimidin-3-yl)amino)-6-methyl-N-(2-(2-methylpyrrolidin-1-yl)ethyl)nicotinamide] | > 7.5 | 0.0223 | 0.147 | 0.00263 |  |  | 
7 | Cc1ncc(C(=O)NCCN2CCCC[C@@H]2C)cc1Nc1nn(C)c2nc(Nc3cncnc3)ncc12 [Example 5, (S)-6-methyl-5-((1-methyl-6-(pyrimidin-5-ylamino)-1H-pyrazolo[3,4-d]pyrimidin-3-yl)amino)-N-(2-(2-methylpiperidin-1-yl)ethyl)nicotinamide] | 2.07 | 0.0053 | 0.0675 | 0.00065 |  |  | 
8 | Cc1ncc(C(=O)NCCN2CCCC2(C)C)cc1Nc1nn(C)c2nc(Nc3cccc(C4(C(=O)O)CC4)c3)ncc12 [Example 38, 1-(3-((3-((5-((2-(2,2-dimethylpyrrolidin-1-yl)ethyl)carbamoyl)-2-methylpyridin-3-yl)amino)-1-methyl-1H-pyrazolo[3,4-d]pyrimidin-6-yl)amino)phenyl)cyclopropanecarboxylic acid] | 0.715 | 0.0153 | > 3 | 0.00159 |  |  | 
9 | COCCCN(CCNC(=O)c1cnc(C)c(Nc2nn(C)c3nc(Nc4cnn(C)c4)ncc23)c1)C1CCC1 [Example 93, N-(2-(cyclobutyl(3-methoxypropyl)amino)ethyl)-6-methyl-5-((1-methyl-6-((1-methyl-1H-pyrazol-4-yl)amino)-1H-pyrazolo[3,4-d]pyrimidin-3-yl)amino)nicotinamide] | > 7.5 | 0.0038 | 0.0106 | 0.00044 |  |  | 
10 | Cc1nn(C)cc1Nc1ncc2c(Nc3cc(C(=O)NCCN4CCC[C@@H]4C)cnc3C)nn(C)c2n1 [Example 160, (S)-5-((6-((1,3-dimethyl-1H-pyrazol-4-yl)amino)-1-methyl-1H-pyrazolo[3,4-d]pyrimidin-3-yl)amino)-6-methyl-N-(2-(2-methylpyrrolidin-1-yl)ethyl)nicotinamide] | > 7.5 | 0.0113 | 0.0533 | 0.00155 |  |  | 
11 | Cc1ncc(C(=O)NCCN2CCCC2(C)C)cc1Nc1nn(C)c2nc(Nc3ccc(=O)[nH]c3)ncc12 [Example 35, N-(2-(2,2-dimethylpyrrolidin-1-yl)ethyl)-6-methyl-5-((1-methyl-6-((6-oxo-1,6-dihydropyridin-3-yl)amino)-1H-pyrazolo[3,4-d]pyrimidin-3-yl)amino)nicotinamide] | > 7.5 | 0.0047 | 1.65 | 0.00068 |  |  | 
12 | Cc1ncc(C(=O)NCCC2CCCCC2)cc1Nc1nn(C)c2nc(NCCC3CCCCC3)ncc12 [Example 108, N-(2-cyclohexylethyl)-5-((6-((2-cyclohexylethyl)amino)-1-methyl-1H-pyrazolo[3,4-d]pyrimidin-3-yl)amino)-6-methylnicotinamide] | > 7.5 | > 3 | 2.27 | 0.172 |  |  | 
13 | Cn1nc(Nc2cc(C(=O)NCCN3CCCC3(C)C)ccc2F)c2cnc(Nc3ccncn3)nc21 [Example 52, N-(2-(2,2-dimethylpyrrolidin-1-yl)ethyl)-4-fluoro-3-((1-methyl-6-(pyrimidin-4-ylamino)-1H-pyrazolo[3,4-d]pyrimidin-3-yl)amino)benzamide] | > 2.5 | 0.16 | 0.067 | 0.00471 |  |  | 
14 | Cc1ncc(C(=O)NCCN2CCCC2(C)C)cc1Nc1nn(C)c2nc(Nc3ccc(=O)[nH]n3)ncc12 [Example 36, N-(2-(2,2-dimethylpyrrolidin-1-yl)ethyl)-6-methyl-5-((1-methyl-6-((6-oxo-1,6-dihydropyridazin-3-yl)amino)-1H-pyrazolo[3,4-d]pyrimidin-3-yl)amino) nicotinamide] | > 7.5 | 0.0883 | > 3 | 0.00411 |  |  | 
15 | CO[C@H]1CCN(CC(=O)Nc2cnc(C)c(Nc3nn(C)c4nc(Nc5cnn(C)c5)ncc34)c2)C1 [Example 136, (S)-2-(3-methoxypyrrolidin-1-yl)-N-(6-methyl-5-((1-methyl-6-((1-methyl-1H-pyrazol-4-yl)amino)-1H-pyrazolo[3,4-d]pyrimidin-3-yl)amino)pyridin-3-yl)acetamide] | > 7.5 | 0.0037 | 0.0122 | 0.00052 |  |  | 
16 | Cc1ncc(C(=O)NCCN2CCCC(F)(F)C2)cc1Nc1nn(C)c2nc(Nc3cncnc3)ncc12 [Example 2, N-(2-(3,3-difluoropiperidin-1-yl)ethyl)-6-methyl-5-((1-methyl-6-(pyrimidin-5-ylamino)-1H-pyrazolo[3,4-d]pyrimidin-3-yl)amino)nicotinamide] | > 7.5 | 0.0037 | 0.0271 | 0.00057 |  |  | 
